Measurements taken from patent US20230285570A1, “THERAPEUTICALLY USEFUL CURE-PRO MOLECULES FOR E3 LIGASE MEDIATED DEGRADATION OF PROTEINS, AND METHODS OF MAKING AND USING THEM” (CORNELL UNIVERSITY, priority 2020, published 2023).
“Also recorded” adds a separate entry of the source.

Key:
Type in all cases: cell-based
[1] = target: T1, BRD4 (Homo sapiens, UniProt O60885); test: CURE-PRO-mediated BRD4 degradation in MCF7 cells, Western blot; design: endogenous in cells; details: 1:1 with VHL ligand 8305, MCF7, 24 h, 100 nM-10 μM
Experimental: (§1) Namalwa, Ramosm HeLa, MCF7, or HT29 HCT116 cells (2.5-3×10^6) were treated for 24 hours with the indicated compounds solubilized in DMSO. The cells were washed in ice-cold PBS and were then lysed in RIPA lysis buffer (150 mM NaCl, 5 mM EDTA, 1% NP-40, 0.5% sodium deoxycholate, 0.1% SDS, 50 mM Tris, pH 8.0.) with Roche protease inhibitor complete cocktail and phosphatase inhibitors (10 mM sodium fluoride, 10 mM sodium pyrophosphate, 1 mM sodium orthovanadate and 20 mM β-glycerophosphate). The total protein concentrations were determined by Bradford Protein Assay (Pierce) and 10-20 μg of protein was loaded onto 4-15% Tris-Glycine gradient gels (Biorad). After standard gel electrophoresis, the separated proteins were transferred to PVDF membrane by wet transfer. The immunoblots were then blocked for 1 hour in 5% skim milk in TBST or 5% BSA in TBST, according to manufacturer's instructions, before an overnight incubation at 4° C. with indicated antibodies and membranes. Membranes were then incubated with the appropriate horseradish peroxidase-conjugated secondary antibodies (1:5,000 dilution) for 1 h at room temperature and the bands were visualized using the Clarity Max Western ECL Substrate (Biorad) and the ChemiDoc Imaging System (Biorad). Signal was detected with ECL Western Blotting Substrate (Pierce) and X-ray film processed with a Konica SRX-101 X-ray film processor or captured by Bio-Rad's Chemidoc Imaging system.
MCF7 cells (3×10^6) were treated for 24 h with the compounds solubilized in DMSO. Compounds were added at 100 nM-10 μM. Standardized protein samples were electrophoresed and imaged as described in the Immunoblotting section above. FIG. 69 depicts the CURE-PRO-mediated BRD4 degradation for the BRD-E9 monomer and VHL ligands 8305 combined in a 1:1 ratio, and FIG. 70 depicts the CURE-PRO-mediated BRD4 degradation for the BRD-E20 monomer and 8305.
MCF7 cells (3×10^6) were treated for 24 h with the compounds solubilized in DMSO. Compounds were added at 1 μM-10 μM. Standardized protein samples were electrophoresed and imaged as described in the Immunoblotting section above. FIG. 71 depicts the CURE-PRO-mediated BRD4 degradation for the BRD-E50 monomer and VHL ligands 8305 and 8304 combined in a 1:1 ratio.

[2] = target: T1, BRD4; test: Summary of BRD4 degradation by CURE-PRO pairs, estimated from Western Blot or WES; design: endogenous in cells; details: for Degradation of BRD4, combination with CRBN ligand 8047: Table 1, aryl-boronic acid BRD4 ligand + 8047
In short: (§2)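 Degradation read-out from immunoblot with ECL, or WES capillary electrophoresis with HRP detection, of RIPA lysates. Cells (Namalwa, Ramos, HeLa, MCF7, HT29 or HCT116) were exposed to DMSO-solubilized compounds for 24 h; a check mark marks 30% to 70% or higher degradation.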

[3] = test system: caspase 3/7; test: Caspase-Glo 3/7 assay, Namalwa cells; details: 1:1 with CRBN ligand 8047, Namalwa, 24 h
Experimental: Caspase-glo® assay (Promega) was conducted following the manufacturer's recommendations. Cells were seeded at a density of 5000 cells/well in a white 96 well plates (Corning, #3917) in a total volume of 100 μl with respective monomers, combinations of BRD ligands together with E3 ligase ligands or vehicle control treatment. After a 24 h incubation, 100 μl of the […] substrate was added per well and luminescence was read on a Spectramax M5 (Molecular Devices).
Namalwa cells (5×10^4) were treated for 24 hours with the compounds solubilized in DMSO. FIG. 57 is a bar graph depiction of fold increase of apoptosis assessed via caspase 3/7 activity using the Caspase-Glo assay (Promega) described above.
Molm-13 (FIG. 76A) or Namalwa (FIG. 76B) cells (5×10^4) were treated for 24 hours with the compounds solubilized in DMSO in white 96 well plates (10 nM-10 μM solubilized in DMSO). FIG. 76 is a bar graph depiction of fold increase of apoptosis assessed via caspase 3/7 activity using the Caspase-Glo assay (Promega) described above.

[4] = target: T1, BRD4; test: CURE-PRO-mediated BRD4 degradation in HeLa cells, WES capillary electrophoresis (ProteinSimple); design: endogenous in cells; host or cells: HeLa
Experimental: All cell lines were purchased from ATCC or DSMZ and grown at 37° C. with 5% CO2. Human HeLa cells were cultured in complete growth medium (Dulbecco's modified Eagle's medium (DMEM) supplemented with 10% FBS); MCF7 cells were cultured in complete growth medium (Dulbecco's modified Eagle's medium (DMEM) supplemented with 10% FBS and 0.01 mg/ml human recombinant insulin (Sigma Aldrich); Namalwa and Ramos cells were cultured in complete growth medium (RPMI 1640 medium supplemented with 10% FBS); HCT116 and HT29 cells were cultured in complete growth medium (McCoy's 5a Medium supplemented with 10% FBS). For cellular degradation of BRD4 studies cells were seeded in a 12-well plate at 70-80% confluency, allowed to attach overnight, and incubated with the indicated compounds for the indicated time. When indicated, a 15-minute pretreatment with 10 μM pomalidomide, 10 μM VHL298, 10 μM Nutlin3a, 1 μM MG-132 or 1 μM Carfilzomib was performed before the addition of CURE-PROs. For washout studies, after CURE-PRO treatment, media was aspirated and incubated with complete medium for the indicated time before lysis.
(§3) WES Simple analysis was performed on WES system (ProteinSimple-Biotechne) according to the manufacturer's instructions. Total protein concentrations of cell lysates were determined by the Pierce BCA kit (Thermo Fisher). 3 μL of 0.3 μg/μL of the protein lysate was loaded onto a 12- to 230-kDa WES assay plate (ProteinSimple) where 300 nL sample was withdrawn through a capillary, subjected to electrophoretic separation of proteins by size, and followed by the simultaneous, HRP-based detection of proteins using the Anti-Rabbit Detection Module (Proteinsimple: #DM-001). The electropherograms were checked then the automatic peak detection was manually corrected if it was required.
HeLa cells (2.5×10^6) were treated for 4-24 hours with the compounds solubilized in DMSO. After 4 hours, indicated points were washed and cells were left in full growth media. Compounds were added at 10 μM each. Standardized protein samples were electrophoresed and imaged as described in the WES ProteinSimple section above. FIGS. 44 and 45 depict the time-dependence of CURE-PRO-mediated BRD4 degradation with the BRD-E52 ligand (FIG. 44) and BRD-E72 ligand (FIG. 45), both JQ1 derivatives comprising of boronic acid linkers, and the CRBN binding ligands (8046, 8047, and 8066), pomalidomide derivatives comprising diol linkers.
HeLa cells (2.5×10^6) were treated for 24 hours with the compounds solubilized in DMSO. Compounds were added at 100 nM-10 μM each. Standardized protein samples were electrophoresed and imaged as described in the WES ProteinSimple section above. FIG. 46 depicts the concentration-dependence of CURE-PRO-mediated BRD4 degradation and the requirement for monomer dimerization.

[5] = target: T1, BRD4; test: CURE-PRO-mediated BRD4 degradation in HeLa cells, Western blot; design: endogenous in cells; host or cells: HeLa; details: 24 h
In short: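 HeLa cells (2.5×10^6) treated 24 h with DMSO-solubilized compounds, degrader pairs combined 1:1, at 1 nM-1 μM, 1-10 μM, 10 μM or 10 and 100 μM each depending on series. RIPA lysates (10-20 μg protein) run on SDS-PAGE and immunoblotted for BRD4 with ECL detection.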

[6] = target: T2, c-MYC (Homo sapiens, UniProt P01106); test: Summary of C-MYC degradation by CURE-PRO pairs, estimated from Western Blot or WES; design: endogenous in cells; host or cells: HT29; details: for Degradation of C-MYC, combination with MDM2 ligand 8310: Table 11, aromatic 1,2-diol MYC ligand + 8310; for Degradation of C-MYC, combination with MDM2 ligand 8312: Table 11, aromatic 1,2-diol MYC ligand + 8312
In short: as §2

[7] = target: T2, c-MYC; test: CURE-PRO-mediated c-MYC degradation in HCT1116 cells, Western blot or WES; design: HT29 cells (2.5×10^6) were treated for 24 h with the compounds solubilized in DMSO; endogenous in cells; host or cells: HT29; details: 1:1 with MDM2 ligand 8310, HCT1116, 24 h, 10 nM-10 μM each
[8] = target: T2, c-MYC; test: as above; design: endogenous in cells; host or cells: HT29; details: 1:1 with MDM2 ligand 8312, HCT1116, 24 h, 10 nM-10 μM each
Experimental: as §1, §3
HCT1116 cells (2.5×10^6) were treated for 24 h with the compounds solubilized in DMSO. Compounds were added at 10 nM-10 μM each. Standardized protein samples were electrophoresed and imaged as described in the immunoblotting or WES (Proteinsimple) sections above. c-MYC monomers, MYC-N20 (FIG. 100, a 10074-G5 derivative comprising diol linkers), and MYC-N10 (FIG. 101), MYC-N6 (FIG. 102), and MYC-N9 (FIG. 103) (10058-F4 derivatives comprising diol linkers), and MDM2 ligands, 8310 and 8312 (Nutlin 3a derivatives comprising boronic acid linkers) were combined in a 1:1 ratio.
HCT1116 cells (2.5×10^6) were treated for 24 h with the compounds solubilized in DMSO. Compounds were added at 1 μM-10 μM each.

T2 sequence (P01106 whole entry): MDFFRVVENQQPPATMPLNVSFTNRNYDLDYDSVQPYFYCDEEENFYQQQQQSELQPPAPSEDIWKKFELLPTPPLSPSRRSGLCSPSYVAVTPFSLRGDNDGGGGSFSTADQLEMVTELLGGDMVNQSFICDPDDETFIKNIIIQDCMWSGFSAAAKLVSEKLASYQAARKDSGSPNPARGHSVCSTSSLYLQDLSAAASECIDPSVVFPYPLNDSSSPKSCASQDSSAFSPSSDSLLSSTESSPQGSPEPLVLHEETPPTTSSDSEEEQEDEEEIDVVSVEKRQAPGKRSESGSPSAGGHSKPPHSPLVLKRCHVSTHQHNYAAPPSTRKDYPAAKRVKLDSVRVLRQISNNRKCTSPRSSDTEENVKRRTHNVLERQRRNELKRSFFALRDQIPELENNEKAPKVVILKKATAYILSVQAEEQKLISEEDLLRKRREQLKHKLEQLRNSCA

In the case of `COc1ccc2c(c1)C(c1ccc(Cl)cc1)=N[C@@H](CC(=O)NCc1ccc(B(O)O)cc1)c1nnc(C)n1-2` [BRD-E9, (4-((2-((4S)-6-(4-chlorophenyl)-8-methoxy-1-methyl-4H-benzo[f][1,2,4]triazolo[4,3-a][1,4]diazepin-4-yl)acetamido)methyl)phenyl)boronic acid], the BRD4 degradation [1] was “there is degradation of BRD4”, the “Degradation of BRD4, combination with CRBN ligand 8047” value [2] was “√ (A black check mark indicates efficacy of 30% to 70% or higher protein degradation)” and the “Degradation of BRD4, combination with VHL ligand 8305” value ([2]; Table 3, aryl-boronic acid BRD4 ligand + 8305) was “√ (A black check mark indicates efficacy of 30% to 70% or higher protein degradation)”.
In the case of `CCNC(=O)C[C@@H]1N=C(c2ccc(Sc3cccc(B(O)O)c3)cc2)c2cc(OC)ccc2-n2c(C)nnc21` [BRD-E52, (3-((4-((4S)-4-(2-(ethylamino)-2-oxoethyl)-8-methoxy-1-methyl-4H-benzo[f][1,2,4]triazolo[4,3-a][1,4]diazepin-6-yl)phenyl)thio)phenyl)boronic acid], the “caspase 3/7 activation” value [3] was “demonstrates activation of caspase 3/7; also recorded: marked caspase activation”, the “sustained BRD4 degradation after drugs are washed out” value ([4]; co-dosed with 8047, 10 μM each, washed after 4 h) was “up to 8 h” and the “BRD4 degradation, time course” value ([4]; co-dosed with CRBN ligand 8047, HeLa, 10 μM each, 4-24 h) was “marked BRD4 degradation after 4 h”. The “concentration-dependent BRD4 degradation” value ([4]; co-dosed with CRBN ligand 8047, HeLa, 24 h, 100 nM-10 μM each) was “marked BRD4 degradation”, the “concentration from which BRD4 protein expression decreases” value ([4]; with CRBN ligand 8047, HeLa, 24 h, 100 nM-10 μM each) was at least 300 nM and the “Degradation of BRD4, combination with CRBN ligand 8047” value [2] was “√ (A black check mark indicates efficacy of 30% to 70% or higher protein degradation)”. For the same compound, the “Degradation of BRD4, combination with CRBN ligand 8066” value ([2]; Table 1, aryl-boronic acid BRD4 ligand + 8066) was “√ (A black check mark indicates efficacy of 30% to 70% or higher protein degradation)”, the “BRD4 degradation after pomalidomide preincubation” value ([5]; 1:1 with 8047, 10 μM, pomalidomide preincubated 15 min at equimolar concentration) was “inhibition of CURE-PRO-mediated BRD4 degradation” and the BRD4 degradation ([5]; BRD ligand with pomalidomide (no 8047), HeLa, 10 μM) was “failed to induce BRD4 degradation”. The BRD4 degradation ([5]; co-treated 1:1 with CRBN ligand 8047, HeLa, 10 μM each) was “causes degradation of BRD4; also recorded: CURE-PRO-mediated degradation of BRD4”.
For `CCc1ccc(/C=C2\SC(=O)N(CCCc3cccc(O)c3O)C2=O)cc1` [MYC-N6], the “Degradation of C-MYC, combination with MDM2 ligand 8310” value [6] was “√ (A black check mark indicates efficacy of 30% to 70% or higher protein degradation)” and the c-MYC degradation [7] was “caused degradation of c-MYC protein; also recorded: Degradation was noted”.
`CCc1ccc(/C=C2\SC(=O)N(CCOCCNC(=O)c3cccc(O)c3O)C2=O)cc1` [MYC-N10] was tested, and the “Degradation of C-MYC, combination with MDM2 ligand 8312” value [6] was “√ (A black check mark indicates efficacy of 30% to 70% or higher protein degradation)”, the c-MYC degradation [7] was “caused degradation of c-MYC at higher concentrations; also recorded: Degradation was noted” and the c-MYC degradation [8] was “caused degradation of c-MYC at higher concentrations; also recorded: Degradation was noted”.
With `O=C(NCCNC(=O)c1cccc(O)c1O)c1ccc(Nc2ccc([N+](=O)[O-])c3nonc23)cc1` [MYC-N20] the “Degradation of C-MYC, combination with MDM2 ligand 8310” value [6] was “√ (A black check mark indicates efficacy of 30% to 70% or higher protein degradation)”, the “Degradation of C-MYC, combination with MDM2 ligand 8312” value [6] was “√ (A black check mark indicates efficacy of 30% to 70% or higher protein degradation)” and the c-MYC degradation [7] was “caused degradation of c-MYC protein”. For the same compound, the c-MYC degradation [8] was “negligible effects”.
